From ChEMBL document CHEMBL4665661, “Design, synthesis, and biological activity evaluation of (-)-6-O-desmethylantofine analogues as potent anti-cancer agents” (Bioorg Med Chem, 2019)
Active and inactive are the calls of the source. No cut-off for these calls is given here.

Legend:
[1] = tested on: Bel-7402; assay: Induction of apoptosis in human Bel-7402 cells assessed as viable cells at 0.1 uM after 72 hrs by FITC-annexin V/propidium iodide-double staining based flow cytometry (reference value: 93.6%); type: functional; conditions: read-out: Activity
[2] = tested on: SK-OV-3; assay: Antiproliferative activity against human SK-OV-3 cells incubated for 72 hrs by MTT assay; type: functional, cell-based
[3] = tested on: Bel-7402; assay: Induction of apoptosis in human Bel-7402 cells assessed as late apoptotic cells at 1 uM after 72 hrs by FITC-annexin V/propidium iodide-double staining based flow cytometry (reference value: 3.06%); type: functional
[4] = Antiproliferative activity against drug-resistant human KB/VCR cells; type: functional, cell-based
[5] = tested on: HepG2; assay: Antiproliferative activity against human HepG2 cells incubated for 72 hrs by MTT assay; type: functional, cell-based
[6] = tested on: Bel-7402; assay: Induction of apoptosis in human Bel-7402 cells assessed as early apoptotic cells at 0.1 uM after 72 hrs by FITC-annexin V/propidium iodide-double staining based flow cytometry (reference value: 0.65%); type: functional
[7] = tested on: Bel-7402; assay: Inhibition of colony formation in human Bel-7402 cells upto 1 uM incubated for 24 hrs measured after 12 days by 2D colony formation assay; type: functional, cell-based; conditions: time 12.0 day
[8] = tested on: HeLa; assay: Antiproliferative activity against human HeLa cells incubated for 72 hrs by MTT assay; type: functional, cell-based
[9] = tested on: T47D; assay: Antiproliferative activity against human T47D cells incubated for 72 hrs by MTT assay; type: functional, cell-based
[10] = tested on: SK-HEP1; assay: Antiproliferative activity against human SK-HEP 1 cells incubated for 72 hrs by MTT assay; type: functional, cell-based
[11] = tested on: SMMC-7721; assay: Antiproliferative activity against human SMMC-7721 cells incubated for 72 hrs by MTT assay; type: functional, cell-based
[12] = tested on: KB; assay: Antiproliferative activity against human KB cells incubated for 72 hrs by MTT assay; type: functional, cell-based
[13] = tested on: SU-DHL-6; assay: Antiproliferative activity against human SU-DHL-6 cells incubated for 72 hrs by MTT assay; type: functional, cell-based
[14] = tested on: Bel-7402; assay: Antiproliferative activity against human Bel-7402 cells incubated for 72 hrs by MTT assay; type: functional, cell-based
[15] = tested on: Bel-7402; assay: Cell cycle arrest in human Bel-7402 cells assessed as increase in cell population at S phase at 1.2 nM by RNase A/propidium iodide staining-based flow cytometric analysis (reference value: 26.3%); type: functional
[16] = tested on: COLO 205; assay: Antiproliferative activity against human COLO 205 cells incubated for 72 hrs by MTT assay; type: functional, cell-based
[17] = tested on: MCF7; assay: Antiproliferative activity against human MCF7 cells incubated for 72 hrs by MTT assay; type: functional, cell-based
[18] = tested on: Bel-7402; assay: Induction of apoptosis in human Bel-7402 cells assessed as necrotic cells at 1 uM after 3 days by […]; type: functional; conditions: time 3 day
[19] = tested on: Bel-7402; assay: Inhibition of DNA synthesis in human Bel-7402 cells assessed as Brdu positive cells at 1 uM measured after 1 hrs by propidium iodide staining-based BrdU incorporation assay (reference value: 29.8%); type: functional; design: scale not given: the % may be the effect or the level left; conditions: time 30 min, 0.5 h
[20] = tested on: MKN-45; assay: Antiproliferative activity against human MKN-45 cells incubated for 72 hrs by MTT assay; type: functional, cell-based
[21] = tested on: Bel-7402; assay: Effect on DNA damage marker protein level in human Bel-7402 cells assessed as phosphorylation of CHK2 at Thr68[…] at 100 fold antiproliferative IC50 after 1 hr by Western blot analysis; type: functional, cell-based
[22] = tested on: Bel-7402; assay: Cell cycle arrest in human Bel-7402 cells assessed as increase in cell population at S phase at 11 nM by RNase A/propidium iodide staining-based flow cytometric analysis (reference value: 26.3%); type: functional
[23] = tested on: Bel-7402; assay: Antiproliferative activity against human Bel-7402 cells after 72 hrs by SRB assay; type: functional, cell-based; conditions: Bel-7402, 72 h
[24] = tested on: SJRH30; assay: Antiproliferative activity against human SJRH30 cells incubated for 72 hrs by MTT assay; type: functional, cell-based
[25] = tested on: SMMC-7721; assay: Cell cycle arrest in human SMMC-7721 cells assessed as inhibition of DNA synthesis by measuring increase in cell population at S phase at 20 to 200 nM after 24 hrs by RNase A/propidium iodide staining-based flow cytometric analysis; type: functional
[26] = tested on: Bel-7402; assay: Inhibition of DNA synthesis in human Bel-7402 cells assessed as Brdu positive cells at 0.01 uM measured after 1 hr by propidium iodide staining-based BrdU incorporation assay (reference value: 29.8%); type: functional; design: scale not given: the % may be the effect or the level left; conditions: time 30 min, 0.5 h
[27] = tested on: BEL-7404 tumor cell line; assay: Antiproliferative activity against human BEL-7404 cells incubated for 72 hrs by MTT assay; type: functional, cell-based
[28] = tested on: K562; assay: Cell cycle arrest in drug- resistant human K562/ADR cells assessed as inhibition of DNA synthesis by measuring increase in cell population at S phase at 1 to 100 nM upto 24 hrs by RNase A/propidium iodide staining-based flow cytometric analysis; type: functional; conditions: dose nM 1-100, time hrs <=24
[29] = tested on: KB; assay: Cell cycle arrest in drug- resistant human KB/VCR cells assessed as inhibition of DNA synthesis by measuring increase in cell population at S phase at 1 to 10 nM upto 12 hrs by RNase A/propidium iodide staining-based flow cytometric analysis; type: functional; conditions: dose nM 1-10, time hrs <=12
[30] = tested on: Bel-7402; assay: Induction of apoptosis in human Bel-7402 cells assessed as early apoptotic cells at 1 uM after 72 hrs by FITC-annexin V/propidium iodide-double staining based flow cytometry (reference value: 0.65%); type: functional
[31] = tested on: Hep 3B2; assay: Antiproliferative activity against human Hep3B cells incubated for 72 hrs by MTT assay; type: functional, cell-based
[32] = tested on: Bel-7402; assay: Induction of apoptosis in human Bel-7402 cells assessed as viable cells at 0.01 uM after 72 hrs by FITC-annexin V/propidium iodide-double staining based flow cytometry (reference value: 93.6%); type: functional; conditions: read-out: Activity
[33] = tested on: MDA-MB-231; assay: Antiproliferative activity against human MDA-MB-231 cells incubated for 72 hrs by MTT assay; type: functional, cell-based
[34] = tested on: KATO III; assay: Antiproliferative activity against human […] cells incubated for 72 hrs by MTT assay; type: functional, cell-based
[35] = tested on: HCT-116; assay: Antiproliferative activity against human HCT-116 cells incubated for 72 hrs by MTT assay; type: functional, cell-based
[36] = tested on: Bel-7402; assay: Cell cycle arrest in human Bel-7402 cells assessed as increase in cell population at S phase at 33 nM by RNase A/propidium iodide staining-based flow cytometric analysis (reference value: 26.3%); type: functional
[37] = tested on: Bel-7402; assay: Induction of apoptosis in human Bel-7402 cells assessed as necrotic cells at 1 uM after 72 hrs by FITC-annexin V/propidium iodide-double staining based flow cytometry (reference value: 2.86%); type: functional
[38] = tested on: Bel-7402; assay: Induction of apoptosis in human Bel-7402 cells assessed as late apoptotic cells at 0.1 uM after 72 hrs by FITC-annexin V/propidium iodide-double staining based flow cytometry (reference value: 3.06%); type: functional
[39] = tested on: Bel-7402; assay: Induction of apoptosis in human Bel-7402 cells assessed as necrotic cells at 0.1 uM after 72 hrs by FITC-annexin V/propidium iodide-double staining based flow cytometry (reference value: 2.86%); type: functional
[40] = tested on: Bel-7402; assay: Induction of apoptosis in human Bel-7402 cells assessed as late apoptotic cells at 0.01 uM after 72 hrs by FITC-annexin V/propidium iodide-double staining based flow cytometry (reference value: 3.06%); type: functional

Structure (SMILES): COc1cc2c3c(c4ccc(OCC#N)cc4c2cc1OC)CN1CCC[C@@H]1C3
- viability at 0.1 µM [1]: 87.8%
- inhibition [2]: Active
- Activity [3]: 15.5%
- IC50 [4]: 600 nM
- inhibition [5]: Active
- Activity [6]: 0.78%
- inhibition [7]: Active
- inhibition [8]: Active
- inhibition [9]: Active
- inhibition [10]: Active
- inhibition [11]: Active
- inhibition [12]: Active
- inhibition [13]: Active
- inhibition [14]: Active
- Activity [15]: 24.5%
- inhibition [16]: Active
- inhibition [17]: Active
- Activity [18]: 20%
- Activity [19]: 8.15%
- inhibition [20]: Active
- Activity [21]: inactive
- Activity [22]: 28.8%
- IC50 [23]: 12 nM
- inhibition [24]: Active
- Activity [25]: Active
- Activity [26]: 26.9%
- inhibition [27]: Active
- Activity [28]: Active
- Activity [29]: Active
- Activity [30]: 1.6%
- inhibition [31]: Active
- viability at 0.01 µM [32]: 96.3%
- inhibition [33]: Active
- inhibition [34]: Active
- inhibition [35]: Active
- Activity [36]: 34%
- Activity [37]: 3.73%
- Activity [38]: 8.29%
- Activity [39]: 3.09%
- Activity [40]: 1.55%
